This is an account of results in patent US20160221921A1, “SKIN WHITENING AGENT CONTAINING NOVEL CYCLIC COMPOUND” (RNS CO.,LTD., priority 2013, published 2016).

Data set [1] deals with B-16 mouse melanoma cells. In words: Melanin generation inhibitory effects in terms of cells. Type of data set: cell-based. The note with it: 72 h, 5 μg/ml, cultured for 3 days, relative to control, read-out: Inhibition rate (%) of melanin generation. The procedure:
Each of the compounds prepared according to the procedures described in Examples 1 to 29 and hydroquinone were added to a culture solution containing B-16 mouse melanoma cells, followed by experiments to determine whitening effects in terms of cells (Lotan R., Lotan D. Cancer Res., 40, pp. 3345-3350, 1980). After treating the compounds to have final concentrations of […] and […], respectively, each of these compounds was added to a culture medium containing B-16 melanoma cells and cultured for 3 days. Then, these cells were treated using trypsin, separated from a culture vessel and centrifuged, then, melanin was extracted from the cells. Melanin was dissolved by adding 1 ml of 1N sodium hydroxide solution to the extract and subjected to measurement of absorbance at 475 nm, and an amount of the generated melanin was expressed by an absorbance per unit number of cells (10^6 cells) (this procedure was repeated three times). An amount of the generated melanin relative to control was calculated as an inhibition rate (%), and results thereof are shown in Table 1 below.

Data set [2] concerns B-16 mouse melanoma cells. The data set is described as above. The note with it: for inhibition at 20 µg/mL: 20 μg/ml. Type of data set: cell-based.
The subject of data set [3] is B-16 mouse melanoma cells. The note with it: at 1 μg/ml or more.
Where [4] appears, read: Mus musculus, 72 h, cultured for 3 days, relative to control, read-out: Inhibition rate (%) of melanin generation.

For `CCCCCOc1ccccc1C(C)=O` [Example 20, 1-(2-pentyloxy-phenyl)-ethanone], the inhibition at 5 µg/mL in data set [1] is 24%. The inhibition at 20 µg/mL in data set [2] (setting [4]) was 41%.

As for `CCCCCCCCOC(=O)c1cccc(OCCCCCCCC)c1` [Example 13, 3-octyloxy benzoic acid octyl ester], the inhibition at 5 µg/mL in data set [1] was 29%. Moreover, the inhibition at 20 µg/mL in data set [2] (setting [4]) stood at 41%.

With `CCCCOC(=O)c1ccccc1OCCCC` [Example 3, 2-butoxy benzoic acid butyl ester], the inhibition at 5 µg/mL in data set [1] stood at 45%. Besides, the inhibition at 20 µg/mL in data set [2] (setting [4]) was 64%.

Turning to `CCCCCCCCOC(=O)c1ccccc1OCCCCCCCC` [Example 6, 2-octyloxy benzoic acid octyl ester], the inhibition at 5 µg/mL in data set [1] was 41%. Further, the inhibition at 20 µg/mL in data set [2] (setting [4]) stood at 52%.

In the case of `CCOC(=O)c1cccc(OCC)c1` [Example 8, 3-ethoxy benzoic acid ethyl ester], the inhibition at 5 µg/mL in data set [1] was 27%. In data set [2] (setting [4]), the inhibition at 20 µg/mL worked out at 42%.

As to `CCCCCOC(=O)c1c(OCCCCC)cnc2ccccc12` [Example 19, 3-pentyloxy-quinoline-4-carboxylic acid pentyl ester], in data set [1], the inhibition at 5 µg/mL worked out at 38%. For the same compound, the inhibition at 20 µg/mL in data set [2] (setting [4]) amounted to 59%.

Regarding `CCCCCOC(=O)c1cc(C(C)=O)ccc1OCCCCC` [Example 15, 5-acetyl-2-pentyloxy benzoic acid pentyl ester], the inhibition at 5 µg/mL in data set [1] came out at 39%. In addition, in data set [2] (setting [4]), the inhibition at 20 µg/mL came to 57%.

In the case of `CCCCCCCCCCOC(=O)c1cccc(OCCCCCCCCCC)c1` [Example 14, 3-decyloxy benzoic acid decyl ester], the inhibition at 5 µg/mL in data set [1] amounted to 21%. For the same compound, the inhibition at 20 µg/mL in data set [2] (setting [4]) stood at 32%.

As for `CCCCC(CC)C(=O)Oc1ccccc1C(C)=O` (centres unmarked) [Example 24, 2-ethylhexanoic acid 2-acetyl-phenyl ester], in data set [1], the inhibition at 5 µg/mL was found to be 19%. Further, in data set [2] (setting [4]), the inhibition at 20 µg/mL came to 38%.

In the case of `CCCOC(=O)c1cccc(OCCC)c1` [Example 9, 3-propoxy benzoic acid propyl ester], in data set [1], the inhibition at 5 µg/mL amounted to 29%. In addition, in data set [2] (setting [4]), the inhibition at 20 µg/mL turned out to be 48%.

Consider `CCCCCCOC(=O)c1cccc(OCCCCCC)c1` [Example 12, 3-hexyloxy benzoic acid hexyl ester], for which the inhibition at 5 µg/mL in data set [1] is 46%. Further, the inhibition at 20 µg/mL in data set [2] (setting [4]) came out at 61%.

`CCCCCOC(=O)c1cc2ccccc2cc1OCCCCC` [Example 17, 3-pentyloxy-2-naphthoic acid pentyl ester]: the inhibition at 5 µg/mL in data set [1] was determined as 38%. In data set [2] (setting [4]), the inhibition at 20 µg/mL came to 52%.

As for `CCCCC(CC)C(=O)Oc1cccc(CCC)c1` (centres unmarked) [Example 27, 2-ethylhexanoic acid 3-propyl-phenyl ester], the inhibition at 5 µg/mL in data set [1] is 23%. Further, the inhibition at 20 µg/mL in data set [2] (setting [4]) came out at 41%.

As to `CCCCCOC(=O)c1ccncc1OCCCCC` [Example 18, 3-pentyloxy-4-pyridinecarboxylic acid pentyl ester], the inhibition at 5 µg/mL in data set [1] stood at 42%. The inhibition at 20 µg/mL in data set [2] (setting [4]) stood at 71%.

On to `CCCCCOC(=O)c1ccc2ccccc2c1OCCCCC` [Example 16, 1-pentyloxy-2-naphthoic acid pentyl ester], for which the inhibition at 5 µg/mL in data set [1] was 41%. In addition, the inhibition at 20 µg/mL in data set [2] (setting [4]) was found to be 52%.

Regarding `CCOC(=O)c1ccccc1OCC` [Example 1, 2-ethoxy benzoic acid ethyl ester], the inhibition at 5 µg/mL in data set [1] amounted to 31%. In data set [2] (setting [4]), the inhibition at 20 µg/mL is 46%.

As for `CCCCCOc1cc2ccccc2cc1C(C)=O` [Example 22, 1-(3-pentyloxy-naphthalen-2-yl)-ethanone], in data set [1], the inhibition at 5 µg/mL was determined as 19%. Further, in data set [2] (setting [4]), the inhibition at 20 µg/mL amounted to 37%.

For the compound `CCCOC(=O)c1ccccc1OCCC` [Example 2, 2-propoxy benzoic acid propyl ester], the inhibition at 5 µg/mL in data set [1] worked out at 41%. Further, the inhibition at 20 µg/mL in data set [2] (setting [4]) was 52%.

As to `CC(=O)Oc1ccccc1C(C)=O` [Example 23, acetic acid 2-acetyl-phenyl ester], the inhibition at 5 µg/mL in data set [1] amounted to 27%. The inhibition at 20 µg/mL in data set [2] (setting [4]) was 41%.

As for `CCCCCCOC(=O)c1ccccc1OCCCCCC` [Example 5, 2-hexyloxy benzoic acid hexyl ester], the inhibition at 5 µg/mL in data set [1] was 52%. Further, in data set [2] (setting [4]), the inhibition at 20 µg/mL was found to be 67%.

As for `CCCCCOc1ccccc1CCC` [Example 25, 1-pentyloxy-2-propyl-benzene], in data set [1], the inhibition at 5 µg/mL stood at 16%. Moreover, the inhibition at 20 µg/mL in data set [2] (setting [4]) was 31%.

For `CCCCCOC(=O)c1ccccc1OCCCCC` [Example 4, 2-pentyloxy benzoic acid pentyl ester], in data set [1], the inhibition at 5 µg/mL was found to be 54%. Moreover, the inhibition at 20 µg/mL in data set [2] (setting [4]) worked out at 65%.

With `CCCCCOc1cccc(C(C)=O)c1` [Example 21, 1-(3-pentyloxy-phenyl)-ethanone], in data set [1], the inhibition at 5 µg/mL was 25%. Besides, in data set [2] (setting [4]), the inhibition at 20 µg/mL is 45%.

`CCCCOC(=O)c1cccc(OCCCC)c1` [Example 10, 3-butoxy benzoic acid butyl ester]: the inhibition at 5 µg/mL in data set [1] came out at 38%. In addition, the inhibition at 20 µg/mL in data set [2] (setting [4]) was found to be 54%.

Turning to `CCCCC(CC)COC(=O)c1ccccc1O` (centres unmarked) [Example 28, 2-hydroxy benzoic acid 2-ethylhexyl ester], the inhibition at 5 µg/mL in data set [1] stood at 27%. In data set [2] (setting [4]), the inhibition at 20 µg/mL turned out to be 39%.

Regarding `Oc1ccc(O)cc1` [Hydroquinone, hydroquinone, reference compound], the cytotoxicity result in data set [3] is recorded as “serious cytotoxicity”. Moreover, in data set [2] (5 μg/ml, cultured for 3 days, relative to control), the “Inhibition rate (%) of melanin generation” value was “Apoptosis”. For the same compound, in data set [2] (Mus musculus, 72 h, 1 μg/ml, cultured for 3 days, relative to control, read-out: Inhibition rate (%) of melanin generation), the inhibition at 1 µg/mL is 48%. For the same compound, the “melanin generation inhibitory effects (in words)” value in data set [2] (cultured mouse melanoma cells) is on record as “strong effects of inhibiting melanin generation at a low concentration”.

As for `CCCCCOC(=O)c1cccc(OCCCCC)c1` [Example 11, 3-pentyloxy benzoic acid pentyl ester], the inhibition at 5 µg/mL in data set [1] was found to be 49%. Besides, the inhibition at 20 µg/mL in data set [2] (setting [4]) turned out to be 62%.

For the compound `CCCCC(CC)C(=O)Oc1ccccc1CCC` (centres unmarked) [Example 26, 2-ethylhexanoic acid 2-propyl-phenyl ester], the inhibition at 5 µg/mL in data set [1] came to 24%. In addition, the inhibition at 20 µg/mL in data set [2] (setting [4]) amounted to 35%.

For `CCCCCCCCCCOC(=O)c1ccccc1OCCCCCCCCCC` [Example 7, 2-decyloxy benzoic acid decyl ester], in data set [1], the inhibition at 5 µg/mL worked out at 22%. Besides, the inhibition at 20 µg/mL in data set [2] (setting [4]) stood at 35%.

Regarding `CCCCC(CC)COC(=O)c1cccc(O)c1` (centres unmarked) [Example 29, 3-hydroxy benzoic acid 2-ethylhexyl ester], the inhibition at 5 µg/mL in data set [1] was 26%. For the same compound, the inhibition at 20 µg/mL in data set [2] (setting [4]) was 37%.
